In brackets after ≈: the same amount, converted by molar mass.

We go through 9 compounds from patent publication EP0408108A2, “Pharmaceutical compositions containing acrylic acid derivatives and their use in the medicine” (RICHTER GEDEON VEGYESZETI GYAR R.T., priority 1989, dated 1991).

The subject of assay [1] is gastric injuries induced by acidic alcohol. Nature of the assay: Assay of gastric injuries induced by acidic alcohol (Robert). It counts as in vivo, rats. The settings on record: for inhibition at 10 mg/kg / ED50: Rattus norvegicus, po, pretreatment 30 min; for inhibition at 10 mg/kg: read-out: % Inhibition at a dose of 10 mg/kg p.o. (pretreatment: 30 min); for ED50 / ED₅₀ p.o. (pretreatment: 30 min): haemorrhagic lesions after acidic alcohol, female rats; for ED50: read-out: ED₅₀ p.o. (pretreatment: 30 min). Here is the method:
1) Assay of gastric injuries induced by acidic alcohol [A. Robert, Gastroenterology, 77, 761-767 (1979)] Female rats weighing about 120 to 150 g fasted for 24 hours were used in this test. Test compounds suspended with Tween 80 were given orally to the animals through an intragastric tube. After a certain period (pretreatment time) acidic alcohol was given through the intragastric tube at a dose or 0.5 ml per 100 g of body weight. The animals were sacrificed after 1 hour, their stomach was removed and incised along the great curve. The length of the reddish-brown strips (haemorrhagic lesions) was measured and the mean total length per stomach was calculated. The biological activity of the test compounds was given compared to the control group.

Assay [2] deals with chronic ulcer model induced by acetic acid. The assay can be described thus: Assay of a chronic ulcer model induced by acetic acid (Tagaki et al). It counts as in vivo, rats. The conditions noted are these: from day 5 to day 10 after operation, sacrificed day 15. The procedure:
2)Assay of a chronic ulcer model induced by acetic acid
The assay was carried out in the following manner. Abdominal wall of femal rats previously fasted for 24 hours was incised under ether anaesthesia. A 20% solution of acetic acid (25 µl) was injected to the subserosus layer of the glandular part of the stomach near the pylorus. Thereafter the abdominal wall was closed and the animal was kept on normal diet, by providing feed and water ad libitum. The treatment was started 5 days after the operation and continued until the 10th day by administering the test compound once a day The animals were sacrificed 15 days after the operation and their stomach was removed. The extent of the ulcer was determined by measuring the diameter of the necrotic regions and calculating their total area. The curative effect of the tested compounds was calculated by the following formula in %: [formula]

A further assay deals with gastric acid secretion. The assay can be described thus: Assay of the inhibition of gastric acid secretion by using pylorus ligature (Shay et al.). The conditions noted are these: for inhibition at 10 mg/kg: read-out: % Inhibition in the amount of the acid at a dose of 10 mg/kg p.o. (pretreatment: 30 min). It counts as in vivo, Wistar rats. Here is the method: 3) Assay of the inhibition of gastric acid secretion -by using pylorus ligature
[Shay et al., Gastroenterology, 5, 43-61 (1945)]
Before ligating the pylorus the test compounds suspended with Tween were given orally at a volume of 0.5 ml per […] of body weight to female Wistar rats fasted previously for 20 hours. The animals were sacrificed 4 hours after the operation, and the amount of the acid in the stomach was measured by titration with 0.01N sodium hydroxide solution in the presence of phenolphtalein indicator. The pH value of the content of stomach was measured by using a pH-meter (Radelkis, Type OP-211/1).

Another assay concerns Campylobacter pylori. The assay can be described thus: Activity against Campylobacter pylori by agar diffusion and agar dilution methods. The conditions noted are these: Helicobacter pylori; Campylobacter pylori cultures isolated from 5 different ulcerous patients; read-out: MIC (minimal inhibitory concentration). It counts as cell-based. Here is the method:
The activity of the compounds of formula (I) against Campylobacter pylori was investigated by agar diffusion and agar dilution methods. The experiments were carried out with Campylobacter pylori cultures isolated from 5 different ulcerous patients.
(In agar diffusion tests the substance spreads into inoculated agar from a disc or well.)

The mark [3] stands for this setting: 10 mg/kg p.o., compared to the control group.
Setting [4] is: Rattus norvegicus, po, 10 mg/kg p.o., pretreatment 30 min, acid titrated 4 hours after pylorus ligature.

On to `COC(=O)/C=C/S(=O)(=O)c1ccccc1` [I, methyl 3-phenylsulfonyl-2(E)-propenoate], for which the inhibition at 10 mg/kg was found to be 98% in assay [1] (setting [3]) and 21% with gastric acid secretion (setting [4]). In addition, the “% Curative effect” value in assay [2] (30 mg/kg p.o. once a day) is 73%. Further, the MIC in the assay on Campylobacter pylori lay within 250 to 270 µg/mL (≈ 1100 to 1190 µM).

For `O=C(O)/C=C\S(=O)(=O)c1ccccc1` [Compound E, 3-phenylsulfonyl-2(Z)-propenoic acid], in assay [1] (setting [3]), the inhibition at 10 mg/kg is 13%.

As for `O=C(O)/C=C/S(=O)(=O)c1ccccc1` [H, magnesium bis[3-phenylsulfonyl-2(E)-propenoate]hydrate], the ED50 in assay [1] was found to be 3.2 mg/kg; in the assay on gastric acid secretion (Rattus norvegicus, po, pretreatment 30 min, gastric acid secretion, pylorus ligature, 4 hours after operation, read-out: ED₅₀ p.o. (pretreatment: 30 min)) it was 10 mg/kg. Also, the inhibition at 10 mg/kg in assay [1] (setting [3]) was 96%; with gastric acid secretion (setting [4]) it was 63%. Also, the “% Curative effect” value in assay [2] (30 mg/kg p.o. once a day) came out at 27%.

A word on the % Inhibition: it is the relative decrease from the control value, in per cent. Regarding `O=C(O)/C=C/S(=O)(=O)c1ccccc1` [F, 3-phenylsulfonyl-2(E)-propenoic acid], the “% Inhibition at a dose of 10 mg/kg p.o. (pretreatment: 30 min)” value in assay [1] (setting [3]) came out at 86%. Also, the “ED₅₀ p.o. (pretreatment: 30 min)” value turned out to be 3.4 mg/kg in assay [1] and 12.0 mg/kg in the assay on gastric acid secretion (p.o., gastric acid secretion, pylorus ligature, 4 hours after operation). Besides, the “% Curative effect” value in assay [2] (50 mg/kg p.o. once a day) came to 37%. The “% Inhibition in the amount of the acid at a dose of 10 mg/kg p.o. (pretreatment: 30 min)” value in the assay with gastric acid secretion (10 mg/kg p.o., acid titrated 4 hours after pylorus ligature) amounted to 48%.

As for Sucralfat [reference compound], the “ED₅₀ p.o. (pretreatment: 30 min)” value in assay [1] was found to be 150 mg/kg. In addition, in assay [2] (500 mg/kg p.o. once a day), the “% Curative effect” value stood at 55%.

In the case of `O=C(O)/C=C/Sc1ccccc1` [G, magnesium bis[3-phenylthio-2(E)-propenoate]], the inhibition at 10 mg/kg in the assay with gastric acid secretion (setting [4]) came to 16%.

On to `O=C(O)/C=C/[S+]([O-])c1ccccc1` (stereo not drawn) [Compound D, 3-phenylsulfinyl-2(E)-propenoic acid], for which, in assay [1], the ED50 was 4.2 mg/kg. Moreover, the inhibition at 10 mg/kg in assay [1] (setting [3]) was 64%; in the assay with gastric acid secretion (setting [4]), 22%.

Consider `O=C(O)/C=C\[S+]([O-])c1ccccc1` (stereo not drawn) [C, 3-phenylsulfinyl-2(Z)-propenoic acid], for which the values for the inhibition at 10 mg/kg (in assay [1] (setting [3]); in the assay with gastric acid secretion (setting [4])) were 56% and 15%, respectively.

`O=C(O)/C=C/Sc1ccccc1` [B, 3-phenylthio-2(E)-propenoic acid]: the ED50 in assay [1] was found to be 31 mg/kg.
